This is an account of results in ChEMBL document CHEMBL1155376, “Structure-activity relationships of norepinephrine reuptake inhibitors with benzothiadiazine dioxide or dihydrosulfostyril cores” (Bioorg Med Chem Lett, 2010).

Molecules are shown by their SMILES.

The term IC50 denotes the midpoint of a concentration-inhibition curve. For orientation: inhibition means the relative decrease from the control value, in per cent. In general, half-life refers to the time needed for the level to fall by half in the phase considered.

Series [1] has as its target T1, Sodium-dependent serotonin transporter (Homo sapiens, UniProt P31645). The series is described as follows: Inhibition of serotonin uptake at human SERT expressed in human JAR.
Target sequence in this assay (P31645 whole entry): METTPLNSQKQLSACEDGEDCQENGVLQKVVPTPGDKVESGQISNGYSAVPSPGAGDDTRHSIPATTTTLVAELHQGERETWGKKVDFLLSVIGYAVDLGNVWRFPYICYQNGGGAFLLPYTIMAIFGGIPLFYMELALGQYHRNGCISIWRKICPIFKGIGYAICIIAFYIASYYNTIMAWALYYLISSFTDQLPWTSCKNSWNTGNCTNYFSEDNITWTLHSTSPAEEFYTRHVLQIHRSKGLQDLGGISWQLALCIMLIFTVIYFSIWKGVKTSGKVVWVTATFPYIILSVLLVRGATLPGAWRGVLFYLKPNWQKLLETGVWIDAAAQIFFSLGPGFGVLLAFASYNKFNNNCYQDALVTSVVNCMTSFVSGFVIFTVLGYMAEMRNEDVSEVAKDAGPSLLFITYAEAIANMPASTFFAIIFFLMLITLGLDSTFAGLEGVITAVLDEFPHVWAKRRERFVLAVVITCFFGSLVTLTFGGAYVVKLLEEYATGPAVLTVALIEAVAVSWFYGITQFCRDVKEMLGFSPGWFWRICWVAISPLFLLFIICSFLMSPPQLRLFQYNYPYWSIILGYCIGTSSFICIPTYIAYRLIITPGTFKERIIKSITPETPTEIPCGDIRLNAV
The target of series [2] is T2, Sodium-dependent dopamine transporter (Homo sapiens, UniProt Q01959). The series is described as follows: Displacement of [3H]WIN-35428 from human recombinant DAT expressed in CHO cells at 1 uM. Format: cell-based. On the technique in general: In a radioligand displacement assay an active substance lowers the binding of a labelled ligand.
The target in series [3] is Sodium-dependent noradrenaline transporter (Homo sapiens, UniProt P23975).
Description: Inhibition of norepinephrine uptake at human NET expressed in MDCK-Net6 cells
Series [4] deals with T1, Sodium-dependent serotonin transporter. The series is described as follows: Inhibition of serotonin uptake at human SERT expressed in human JAR at 1 uM.
Target sequence in this assay (P31645 whole entry, looked up): as the sequence (P31645 whole entry) above
A short description of series [5]: Half life in rat liver microsomes at 1 uM.
The target of series [6] is T1, Sodium-dependent serotonin transporter. The series is described as follows: Inhibition of serotonin uptake at human SERT expressed in human JAR at 6 uM.
Target sequence in this assay (P31645 whole entry, looked up): as the sequence (P31645 whole entry) above
In series [7] the test system is Rattus norvegicus. The series is described as follows: Thermoregulatory activity in OVX-induced thermoregulatory dysfunction Sprague-Dawley rat model assessed as maximum reduction in tail-skin temperature at 3 mg/kg, po by implanted temperature and physical activity transmitter. Type of series: functional.
The subject of series [8] is Rattus norvegicus. The series is described as follows: Thermoregulatory activity in OVX-induced thermoregulatory dysfunction Sprague-Dawley rat model assessed as mean reduction in tail-skin temperature at 3 mg/kg, po by implanted temperature and physical activity transmitter. Format: functional.
The target in series [9] is T2, Sodium-dependent dopamine transporter. The series is described as follows: Displacement of [3H]WIN-35428 from human recombinant DAT expressed in CHO cells at 10 uM. Format: cell-based.
For series [10] the target is unchanged. The series is described as follows: biochemical.
In series [11] the test system is Rattus norvegicus. The series is described as follows: Duration of thermoregulatory activity in OVX-induced thermoregulatory dysfunction Sprague-Dawley rat model at 3 mg/kg, po by implanted temperature and physical activity transmitter. Format: functional.

Chain of Sodium-dependent noradrenaline transporter (P23975 whole entry): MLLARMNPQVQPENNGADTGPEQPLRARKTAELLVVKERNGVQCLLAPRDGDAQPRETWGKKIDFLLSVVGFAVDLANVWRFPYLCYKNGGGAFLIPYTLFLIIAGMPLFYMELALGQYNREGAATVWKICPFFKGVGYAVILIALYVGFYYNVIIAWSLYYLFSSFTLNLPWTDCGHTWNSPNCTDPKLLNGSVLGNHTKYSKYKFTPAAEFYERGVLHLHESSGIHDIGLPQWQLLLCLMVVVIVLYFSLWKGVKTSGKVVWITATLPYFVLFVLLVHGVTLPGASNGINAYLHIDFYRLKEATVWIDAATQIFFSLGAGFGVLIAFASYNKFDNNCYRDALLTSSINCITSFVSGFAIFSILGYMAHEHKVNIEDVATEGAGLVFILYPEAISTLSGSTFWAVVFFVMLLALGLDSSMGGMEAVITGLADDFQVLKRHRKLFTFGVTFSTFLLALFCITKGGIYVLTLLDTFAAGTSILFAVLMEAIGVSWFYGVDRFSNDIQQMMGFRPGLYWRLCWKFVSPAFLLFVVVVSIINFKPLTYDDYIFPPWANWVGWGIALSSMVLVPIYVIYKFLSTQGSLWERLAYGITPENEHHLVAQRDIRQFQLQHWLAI
T2 sequence (Q01959 whole entry): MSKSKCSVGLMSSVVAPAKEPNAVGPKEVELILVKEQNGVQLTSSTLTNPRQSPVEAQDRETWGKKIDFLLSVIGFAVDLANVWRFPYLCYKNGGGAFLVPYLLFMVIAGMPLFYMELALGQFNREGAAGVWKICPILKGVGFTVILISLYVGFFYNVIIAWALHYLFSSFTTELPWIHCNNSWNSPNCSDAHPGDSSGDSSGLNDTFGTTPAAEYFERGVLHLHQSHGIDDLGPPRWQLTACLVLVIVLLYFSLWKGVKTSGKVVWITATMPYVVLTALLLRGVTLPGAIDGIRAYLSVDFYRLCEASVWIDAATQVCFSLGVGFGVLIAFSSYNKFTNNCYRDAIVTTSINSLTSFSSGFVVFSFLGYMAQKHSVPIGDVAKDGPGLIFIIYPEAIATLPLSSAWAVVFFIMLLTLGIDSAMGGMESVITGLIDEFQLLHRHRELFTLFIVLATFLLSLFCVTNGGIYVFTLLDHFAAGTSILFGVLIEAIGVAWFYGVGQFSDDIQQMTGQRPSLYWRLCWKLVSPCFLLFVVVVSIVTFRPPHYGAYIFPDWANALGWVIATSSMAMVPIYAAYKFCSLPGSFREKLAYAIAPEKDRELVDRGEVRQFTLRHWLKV

The molecule `CNCCCN1Cc2cc(F)ccc2N(c2ccccc2F)S1(=O)=O` displayed an IC50 in series [1] of 1.5 µM. The inhibition in series [2] worked out at 2.5%.
Regarding `CNCCCCN1Cc2cc(F)ccc2N(c2ccccc2F)S1(=O)=O`, in series [1], the IC50 came out at 0.11 µM. The inhibition in series [2] is 25%.
Regarding `CNCCCCN1Cc2ccccc2N(c2ccccc2F)S1(=O)=O`, half-maximal inhibition in series [1] (IC50) required 2 µM. In series [2], the inhibition is 18%.
The molecule `CNCCN1Cc2cc(F)ccc2N(c2ccccc2F)S1(=O)=O` displayed an IC50 in [1] of 13.3 µM. The inhibition in series [2] is -5%.
`CNCCCN1Cc2ccccc2N(c2ccc(C)cc2)S1(=O)=O` returned an IC50 in series [3] of 0.14 µM.
In series [1], `CNCCCN1Cc2ccccc2N(c2ccccc2)S1(=O)=O` had a concentration for half-maximal inhibition (IC50) of 6 µM. Further, the inhibition in series [2] is 17%.
`CNCCCN1Cc2ccccc2N(c2ccccc2F)S1(=O)=O` had an IC50 in series [1] of 5.5 µM. Also, the inhibition in series [2] was -7%.
On to `CNCCN1Cc2ccccc2N(c2ccccc2F)S1(=O)=O`, for which the inhibition in [2] and in series [4] was 24% throughout.
With `CNCCCC1Cc2cc(F)ccc2N(c2c(F)cccc2F)S1(=O)=O` (single isomer, unassigned) [listing 1 of 2 here], the half-life at 1 µM in series [5] is more than 30 min. Also, the IC50 in series [3] came out at 0.025 µM.
On to `CNCCCC1Cc2cc(F)ccc2N(c2c(F)cccc2F)S1(=O)=O` (single isomer, unassigned) [listing 2 of 2 here], for which the inhibition in [6] is 82%.
Take `CNCCCC1Cc2ccccc2N(c2c(F)cccc2F)S1(=O)=O` (single isomer, unassigned; 16e) [listing 1 of 2 here]: the half-life at 1 µM in series [5] came to 3 min. For the same molecule, in [3], half-maximal inhibition (IC50) was put at 0.052 µM.
Turning to `CNCCCC1Cc2ccccc2N(c2c(F)cccc2F)S1(=O)=O` (single isomer, unassigned; 16e) [listing 2 of 2 here], the inhibition in [6] was determined as 40%.
Turning to `CNCCCC1Cc2ccccc2N(c2c(F)cccc2F)S1(=O)=O.Cl` (single isomer, unassigned; 16f), the results for the IC50 in series [1] and in series [3] were 8 µM and 0.005 µM, respectively. Also, in series [5], the half-life at 1 µM was 4 min. The Activity with Rattus norvegicus [7] and in the series with Rattus norvegicus [8] was 0 °C throughout.
With `CNCCCC1Cc2ccccc2N(c2c(F)cccc2F)S1(=O)=O` (single isomer, unassigned; 16f), the inhibition in [9] came out at 3.8%.
On to `CNCCCC1Cc2ccccc2N(c2ccccc2)S1(=O)=O` (single isomer, unassigned; enantiomer I), for which the half-inhibitory concentration (IC50) in [1] amounted to 6.9 µM; in series [3], 0.088 µM. Further, in [5], the half-life at 1 µM is 3 min.
`CNCCCC1Cc2ccccc2N(c2ccccc2F)S1(=O)=O` (single isomer, unassigned; enantiomer I) [listing 1 of 2 here] yielded a half-life at 1 µM in series [5] of less than 1 min. In series [3], this molecule displayed an IC50 of 0.055 µM.
Regarding `CNCCCC1Cc2cc(F)ccc2N(c2ccccc2F)S1(=O)=O` (single isomer, unassigned; enantiomer I), the values for the half-maximal inhibitory concentration (IC50) in series [1] and in series [3] were 0.72 µM and 0.093 µM, respectively. The molecule further came in with a half-life at 1 µM in series [5] of more than 30 min.
As to `CNCCCC1Cc2cc(F)ccc2N(c2ccccc2)S1(=O)=O` (single isomer, unassigned; enantiomer I), the inhibition in series [6] came out at 85%.
On to `CNCCCC1Cc2ccccc2N(c2ccccc2F)S1(=O)=O` (single isomer, unassigned; enantiomer I) [listing 2 of 2 here], for which the inhibition is 11% in series [6] and 21% in series [9].
For the molecule `CNCCCC1Cc2ccccc2N(c2ccccc2)S1(=O)=O.Cl` (single isomer, unassigned; enantiomer II), the half-inhibitory concentration (IC50) in [1] was determined as 2.5 µM; in [3], 0.012 µM; in [10] it was 6.6 µM. The molecule further came in with a half-life at 1 µM in [5] of less than 1 min.
`CNCCCC1Cc2ccccc2N(c2ccccc2F)S1(=O)=O.Cl` (single isomer, unassigned; enantiomer II) displayed a half-life at 1 µM in [5] of less than 1 min. The same molecule gave an IC50 in [3] of 0.003 µM.
Turning to `CNCCCC1Cc2cc(F)ccc2N(c2ccccc2)S1(=O)=O` (single isomer, unassigned; enantiomer II), the IC50 was 0.24 µM in series [1] and 4 µM in [10].
For `CNCCCC1Cc2cc(F)ccc2N(c2ccccc2F)S1(=O)=O.Cl` (single isomer, unassigned; enantiomer II), the IC50 turned out to be 0.34 µM in series [1] and 0.011 µM in series [3]. For the same molecule, the half-life at 1 µM in [5] was more than 30 min. The Activity with Rattus norvegicus [7] came out at 2.4 °C; with Rattus norvegicus [8], 1.5 °C; in the series with Rattus norvegicus [11], 6 h.
Consider `CNCCCC1Cc2cc(F)ccc2N(c2c(F)cccc2F)S1(=O)=O.Cl` (single isomer, unassigned; enantiomer II), for which the IC50 in [1] was found to be 0.6 µM; in series [3] it was 0.027 µM. In [5], the half-life at 1 µM was more than 30 min.
For `CNCCCC1Cc2cc(F)ccc2N(c2ccccc2F)S1(=O)=O` (single isomer, unassigned; enantiomer II), in series [9], the inhibition was determined as 50%.
As to `CNCCCC1Cc2ccccc2N(c2ccccc2F)S1(=O)=O` (single isomer, unassigned; enantiomer II), the inhibition in series [6] was determined as 74%; in series [9] it was 23%.
